In paper PMC4980783 (Chemistry Central Journal, 2016):
Where “and” joins values, the source holds several entries; their conditions need not be identical. Identical values can stand only once. Like-named read-outs stand apart in the source and are kept apart here.

Target: influenza virus NA (Influenza A virus, UniProt Q6DPL2)
Format: biochemical
Conditions: single replicates (3)

Chain of influenza virus NA (Q6DPL2 whole entry, looked up): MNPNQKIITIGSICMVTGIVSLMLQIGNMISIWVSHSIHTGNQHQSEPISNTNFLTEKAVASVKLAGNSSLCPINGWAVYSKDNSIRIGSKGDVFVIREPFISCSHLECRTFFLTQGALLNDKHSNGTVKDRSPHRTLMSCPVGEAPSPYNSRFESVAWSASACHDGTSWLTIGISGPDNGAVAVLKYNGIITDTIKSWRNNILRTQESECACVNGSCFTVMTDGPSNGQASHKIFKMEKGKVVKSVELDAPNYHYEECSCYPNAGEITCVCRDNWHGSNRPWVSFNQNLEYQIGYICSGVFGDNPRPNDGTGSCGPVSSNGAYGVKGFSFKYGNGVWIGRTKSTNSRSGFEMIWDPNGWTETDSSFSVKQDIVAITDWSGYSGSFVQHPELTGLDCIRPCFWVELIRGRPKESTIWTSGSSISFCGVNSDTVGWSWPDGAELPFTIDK

For `CC(=O)N[C@H]1[C@H]([C@H](O)[C@H](O)CO)OC(C(=O)O)=C[C@@H]1N=C(N)N` [Zanamivir, zanamivir], the inhibition rates (first line per compound) was 100.00 and 99.40 and 99.96, the inhibition rates (second line per compound, presumably 5-fold diluted (Sheet1)) was 44.04 and 41.05 and the inhibition rates (third line per compound) was 17.05 and 17.04 and 19.04.
